Laboratory results: ChEMBL document CHEMBL3045720, “Synthesis and antifungal activity of 2-chloromethyl-1H-benzimidazole derivatives against phytopathogenic fungi in vitro” (J Agric Food Chem, 2013)
In brackets after ≈: the same amount, converted by molar mass.

Assays:
[1] = tested on: Colletotrichum gloeosporioides; experiment: Antifungal activity against Colletotrichum gloeosporioides assessed as inhibition of mycelium growth […]; type: functional, organism-based; settings: Colletotrichum gloeosporioides; read-out: IC50
[2] = tested on: Fusarium solani; experiment: Antifungal activity against Fusarium solani assessed as inhibition of mycelium growth at 100 ug/ml […]; type: functional; settings: 168 h, read-out: GI
[3] = tested on: Fusarium solani; experiment: Antifungal activity against Fusarium solani assessed as inhibition of mycelium growth after 1 week; type: functional, organism-based; settings: Fusarium solani, 168 h; read-out: IC50
[4] = tested on: Cytospora; experiment: Antifungal activity against Cytospora sp. assessed as […]; type: functional, organism-based; settings: Cytospora, 168 h; read-out: IC50
[5] = tested on: Cytospora; experiment: Antifungal activity against Cytospora sp. assessed as inhibition of mycelium growth at 100 ug/ml after 3 to 4 days; settings: 72 to 96 h, read-out: GI
[6] = tested on: Alternaria solani; experiment: Antifungal activity against Alternaria solani assessed as inhibition of mycelium growth after 1 week; type: functional, organism-based; settings: Alternaria solani, 168 h; read-out: IC50
[7] = tested on: Colletotrichum gloeosporioides; experiment: Antifungal activity against Colletotrichum gloeosporioides assessed as inhibition of mycelium growth at 100 ug/ml after 3 to 4 days; settings: 72 to 96 h, read-out: GI
[8] = tested on: Alternaria solani; experiment: Antifungal activity against Alternaria solani assessed as inhibition of mycelium growth at 100 ug/ml […]; type: functional; settings: 168 h, read-out: GI
[9] = tested on: Botrytis cinerea; experiment: Antifungal activity against Botryotinia fuckeliana assessed as inhibition of mycelium growth at 100 ug/ml […]; type: functional; settings: 168 h, read-out: GI
[10] = tested on: Botrytis cinerea; experiment: Antifungal activity against Botryotinia fuckeliana assessed as inhibition of mycelium growth after 1 week; type: functional, organism-based; settings: 168 h

Row | SMILES | IC50 [1] [µg/mL] | inhibition of growth at 100 µg/mL [2] [%] | IC50 [3] [µg/mL] | IC50 [4] [µg/mL] | inhibition of growth at 100 µg/mL [5] [%] | IC50 [6] [µg/mL] | inhibition of growth at 100 µg/mL [7] [%] | inhibition of growth at 100 µg/mL [8] [%] | inhibition of growth at 100 µg/mL [9] [%] | IC50 [10] [µg/mL]
1 | Cn1c(COc2ccc(F)cc2)nc2ccccc21 | > 100 | 83.9 | 31.5 (≈ 123 µM) | 58.2 (≈ 227 µM) | 80.6 | 69.3 (≈ 271 µM) | 62.7 | 85.2 | 47.4 | > 120
2 | Cn1c(CCl)nc2ccccc21 | 80.3 (≈ 444 µM) | 28.8 | > 150 | > 100 | 45.4 | > 100 | 69.6 | 51.6 | 91.5 | 68.1 (≈ 377 µM)
3 | CC(=O)c1cccc(OCc2nc3ccccc3n2C)c1 | > 120 | 78.5 | 82.4 (≈ 294 µM) | > 100 | 55.5 | > 100 | 41.3 | 64.5 | 82.5 | 68.9 (≈ 246 µM)
4 | CC(=O)c1ccccc1OCc1nc2ccccc2n1C | 70.6 (≈ 252 µM) | 64.7 | > 100 | > 100 | 64.5 | > 100 | 71.4 | 65.5 | 64.9 | > 100
5 | CC(=O)c1ccc(OCc2nc3ccccc3n2C)cc1 | > 120 | 81.8 | 39 (≈ 139 µM) | 50.7 (≈ 181 µM) | 87.1 | > 100 | 38.1 | 55.7 | 65.4 | 89.6 (≈ 320 µM)
6 | Cc1cc(O)no1 [HYMEXAZOL] | > 100 | 72.5 | 38.5 (≈ 388 µM) | > 100 | 38.9 | 14 (≈ 142 µM) | 49.2 | 80.3 | 100 | 8.92 (≈ 90 µM)
